Values quoted from earlier work in patent US7405313B2, “Method for the synthesis of basic chromium carboxylates” (The Board of Trustees of the University of Alabama, priority 2006, dated 2008).

Key:
colorectal cancer = settings: rat
[1] = test system: healthy and model type 2 diabetic rats
[2] = compared to other chromium-containing nutritional supplements
rats on regular diets = settings: for effect on body mass, percentage lean or fat content, tissue size, or blood variables (fasting glucose, insulin, cholesterol, etc.): rats on regular diets
[3] = healthy and model type 2 diabetic rats

Compound	onset of colorectal cancer (colorectal cancer)	glycated hemoglobin ([1]; diabetes models)	blood plasma cholesterol and triglycerides levels [1, 3]	insulin sensitivity [1, 3]	dissolution in water	absorption [2]	effect on body mass, percentage lean or fat content, tissue size, or blood variables (fasting glucose, insulin, cholesterol, etc.) (rats on regular diets)	acute toxic effects (rats on regular diets; rats, amounts up to 1500 μg/kg diet for up to 24 weeks)
CCC(=O)[O-].CCC(=O)[O-].CCC(=O)[O-].CCC(=O)[O-].CCC(=O)[O-].CCC(=O)[O-].O.O.O.[Cr+3].[Cr+3].[Cr+3].[O-2] [Complex 1, [Cr3O(O2CCH2CH3)6(H2O)3]^+]	reduce the onset of colorectal cancer	reduce glycated hemoglobin	improve blood plasma cholesterol and triglycerides levels	increase insulin sensitivity	dissolves in water very rapidly	absorbed very rapidly and very efficiently	–	–
[Cl][Cr]([Cl])[Cl] [chromium chloride]	–	–	–	–	–	–	no effect	–
chromium(III) tris(picolinate) [Cr(pic)3]	–	–	–	–	–	–	no effect	no acute toxic effects
